From the supplement of paper PMC10307832 come the findings set out here.

What all share (assay): relative viability (nuclei count vs DMSO), 5 days (fraction); higher = more cells survive
Compound in the test “VE-821 + Olaparib”: CS(=O)(=O)c1ccc(-c2cnc(N)c(C(=O)Nc3ccccc3)n2)cc1 [VE-821] + O=C(c1cc(Cc2n[nH]c(=O)c3ccccc23)ccc1F)N1CCN(C(=O)C2CC2)CC1 [Olaparib] (partner 8 µM)
The essentials: (§1)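 Medians of duplicate plates are given as relative viability. That measure is the nuclei count in treated wells divided by the count in vehicle wells. Counts were taken on 4× images of lung cancer cell lines in 1536-well plates, 5 days after pin-tool dosing the day after seeding with one drug alone or a fixed anchor-drug dose plus five library-drug doses (not always all listed) in √10 steps.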

Compound in the test “Vismodegib + Foretinib”: CS(=O)(=O)c1ccc(C(=O)Nc2ccc(Cl)c(-c3ccccn3)c2)c(Cl)c1 [Vismodegib] + COc1cc2c(Oc3ccc(NC(=O)C4(C(=O)Nc5ccc(F)cc5)CC4)cc3F)ccnc2cc1OCCCN1CCOCC1 [Foretinib] (partner 0.25 µM)
An outline of the steps: as §1

Compound in the test “Vismodegib + Palbociclib”: CS(=O)(=O)c1ccc(C(=O)Nc2ccc(Cl)c(-c3ccccn3)c2)c(Cl)c1 [Vismodegib] + CC(=O)c1c(C)c2cnc(Nc3ccc(N4CCNCC4)cn3)nc2n(C2CCCC2)c1=O [Palbociclib] (partner 0.5 µM)
An outline of the steps: as §1

Compound in the test “Ruxolitinib + Decitabine”: N#CC[C@H](C1CCCC1)n1cc(-c2ncnc3[nH]ccc23)cn1 [Ruxolitinib] + Nc1ncn([C@H]2C[C@H](O)[C@@H](CO)O2)c(=O)n1 [Decitabine] (partner 2 µM)
The essentials:
as §1

As for 201T, the relative viability with VE-821 + Olaparib (first compound 0.08 µM) stood at 0.859; in the test with VE-821 + Olaparib (first compound 0.253 µM), 0.819; with VE-821 + Olaparib (first compound 0.8 µM), 0.826; with VE-821 + Olaparib (first compound 2.53 µM), 0.748; with VE-821 + Olaparib (first compound 8 µM) it was 0.623; in the test with Vismodegib + Foretinib (first compound 0.08 µM), 1.17. For the same cell line, the relative viability was 1.04 in the test with Vismodegib + Foretinib (first compound 0.253 µM); 0.951 in the test with Vismodegib + Foretinib (first compound 0.8 µM); 1.08 with Vismodegib + Foretinib (first compound 2.53 µM); 1.08 with Vismodegib + Foretinib (first compound 8 µM); 0.323 with Vismodegib + Palbociclib (first compound 0.08 µM); 0.393 with Vismodegib + Palbociclib (first compound 0.253 µM). Besides, the relative viability with Vismodegib + Palbociclib (first compound 0.8 µM) was 0.363; with Vismodegib + Palbociclib (first compound 2.53 µM) it was 0.359; with Vismodegib + Palbociclib (first compound 8 µM), 0.382; with Ruxolitinib + Decitabine (first compound 0.08 µM) it was 0.949; with Ruxolitinib + Decitabine (first compound 0.253 µM) it was 0.914; with Ruxolitinib + Decitabine (first compound 0.8 µM), 1. The values for the relative viability with Ruxolitinib + Decitabine (first compound 2.53 µM) and with Ruxolitinib + Decitabine (first compound 8 µM) were 1.02 and 0.973, respectively.
Consider A549, for which the relative viability was 0.431 with VE-821 + Olaparib (first compound 0.08 µM); 0.291 with VE-821 + Olaparib (first compound 0.253 µM); 0.195 with VE-821 + Olaparib (first compound 0.8 µM); 0.262 with VE-821 + Olaparib (first compound 2.53 µM); 0.207 with VE-821 + Olaparib (first compound 8 µM); 1.03 in the test with Vismodegib + Foretinib (first compound 0.08 µM). Also, the relative viability stood at 0.928 in the test with Vismodegib + Foretinib (first compound 0.253 µM); 1.05 with Vismodegib + Foretinib (first compound 0.8 µM); 0.969 in the test with Vismodegib + Foretinib (first compound 2.53 µM); 0.943 with Vismodegib + Foretinib (first compound 8 µM); 0.215 with Ruxolitinib + Decitabine (first compound 0.08 µM); 0.254 with Ruxolitinib + Decitabine (first compound 0.253 µM). For the same cell line, the relative viability with Ruxolitinib + Decitabine (first compound 0.8 µM) is 0.322; in the test with Ruxolitinib + Decitabine (first compound 2.53 µM) it was 0.197; with Ruxolitinib + Decitabine (first compound 8 µM) it was 0.28.
As to A-427, the relative viability in the test with VE-821 + Olaparib (first compound 0.08 µM) was 0.797; with VE-821 + Olaparib (first compound 0.253 µM), 0.71; with VE-821 + Olaparib (first compound 0.8 µM), 0.618; with VE-821 + Olaparib (first compound 2.53 µM), 0.556; with VE-821 + Olaparib (first compound 8 µM) it was 0.389; with Vismodegib + Foretinib (first compound 0.08 µM), 1. The relative viability with Vismodegib + Foretinib (first compound 0.253 µM) is 1.01; in the test with Vismodegib + Foretinib (first compound 0.8 µM), 1.08; with Vismodegib + Foretinib (first compound 2.53 µM) it was 1.11; with Vismodegib + Foretinib (first compound 8 µM) it was 1.11; with Vismodegib + Palbociclib (first compound 0.08 µM) it was 0.536; in the test with Vismodegib + Palbociclib (first compound 0.253 µM), 0.525. For the same cell line, the relative viability in the test with Vismodegib + Palbociclib (first compound 0.8 µM) worked out at 0.506; with Vismodegib + Palbociclib (first compound 2.53 µM) it was 0.493; in the test with Vismodegib + Palbociclib (first compound 8 µM), 0.566; with Ruxolitinib + Decitabine (first compound 0.08 µM), 0.566; with Ruxolitinib + Decitabine (first compound 0.253 µM), 0.558; in the test with Ruxolitinib + Decitabine (first compound 0.8 µM), 0.579. Further, the results for the relative viability with Ruxolitinib + Decitabine (first compound 2.53 µM) and with Ruxolitinib + Decitabine (first compound 8 µM) were 0.605 and 0.58, respectively.
ABC-1: the relative viability was determined as 0.776 with VE-821 + Olaparib (first compound 0.08 µM); 0.873 in the test with VE-821 + Olaparib (first compound 0.253 µM); 0.755 with VE-821 + Olaparib (first compound 0.8 µM); 0.869 in the test with VE-821 + Olaparib (first compound 2.53 µM); 0.757 with VE-821 + Olaparib (first compound 8 µM); 0.894 with Vismodegib + Foretinib (first compound 0.08 µM). The relative viability with Vismodegib + Foretinib (first compound 0.253 µM) was found to be 1.15; with Vismodegib + Foretinib (first compound 0.8 µM), 1.14; with Vismodegib + Foretinib (first compound 2.53 µM) it was 1.08; in the test with Vismodegib + Foretinib (first compound 8 µM), 1.23; with Vismodegib + Palbociclib (first compound 0.08 µM), 0.667; in the test with Vismodegib + Palbociclib (first compound 0.253 µM) it was 1.01. The relative viability is 0.542 with Vismodegib + Palbociclib (first compound 0.8 µM); 0.618 in the test with Vismodegib + Palbociclib (first compound 2.53 µM); 0.73 in the test with Vismodegib + Palbociclib (first compound 8 µM); 1.03 with Ruxolitinib + Decitabine (first compound 0.253 µM); 1.38 with Ruxolitinib + Decitabine (first compound 0.8 µM); 1.21 in the test with Ruxolitinib + Decitabine (first compound 2.53 µM). Besides, in the test with Ruxolitinib + Decitabine (first compound 8 µM), the relative viability was 1.21.
For BEN, the relative viability in the test with VE-821 + Olaparib (first compound 0.08 µM) is 1.17; with VE-821 + Olaparib (first compound 0.253 µM), 1.01; with VE-821 + Olaparib (first compound 0.8 µM) it was 0.902; with VE-821 + Olaparib (first compound 2.53 µM) it was 0.768; with VE-821 + Olaparib (first compound 8 µM), 1.08; with Vismodegib + Foretinib (first compound 0.08 µM), 0.871. Further, the relative viability in the test with Vismodegib + Foretinib (first compound 0.253 µM) amounted to 0.799; in the test with Vismodegib + Foretinib (first compound 0.8 µM), 0.606; in the test with Vismodegib + Foretinib (first compound 2.53 µM), 0.642; in the test with Vismodegib + Foretinib (first compound 8 µM) it was 0.644; with Vismodegib + Palbociclib (first compound 0.08 µM) it was 0.455; with Vismodegib + Palbociclib (first compound 0.253 µM), 0.483. For the same cell line, the relative viability in the test with Vismodegib + Palbociclib (first compound 0.8 µM) was found to be 0.469; with Vismodegib + Palbociclib (first compound 2.53 µM), 0.479; in the test with Vismodegib + Palbociclib (first compound 8 µM), 0.512; with Ruxolitinib + Decitabine (first compound 0.08 µM) it was 0.5; in the test with Ruxolitinib + Decitabine (first compound 0.253 µM) it was 0.699; with Ruxolitinib + Decitabine (first compound 0.8 µM) it was 0.816. Also, the figures for the relative viability in the test with Ruxolitinib + Decitabine (first compound 2.53 µM) and with Ruxolitinib + Decitabine (first compound 8 µM) were 0.592 and 0.773, respectively.
Regarding CAL-12T, the relative viability is 0.869 with VE-821 + Olaparib (first compound 0.08 µM); 0.73 in the test with VE-821 + Olaparib (first compound 0.253 µM); 0.816 in the test with VE-821 + Olaparib (first compound 0.8 µM); 0.691 in the test with VE-821 + Olaparib (first compound 2.53 µM); 0.549 with VE-821 + Olaparib (first compound 8 µM); 1.08 with Vismodegib + Foretinib (first compound 0.08 µM). For the same cell line, the relative viability with Vismodegib + Foretinib (first compound 0.253 µM) is 1.06; in the test with Vismodegib + Foretinib (first compound 0.8 µM) it was 1.05; in the test with Vismodegib + Foretinib (first compound 2.53 µM), 1.06; with Vismodegib + Foretinib (first compound 8 µM), 1.16; with Vismodegib + Palbociclib (first compound 0.08 µM), 0.45; in the test with Vismodegib + Palbociclib (first compound 0.253 µM), 0.499. For the same cell line, the figures for the relative viability in the test with Vismodegib + Palbociclib (first compound 0.8 µM), with Vismodegib + Palbociclib (first compound 2.53 µM) and with Vismodegib + Palbociclib (first compound 8 µM) were 0.569, 0.454 and 0.442, respectively.
In the case of COR-L23, the relative viability with VE-821 + Olaparib (first compound 0.08 µM) amounted to 0.372; in the test with VE-821 + Olaparib (first compound 0.253 µM), 0.346; with VE-821 + Olaparib (first compound 0.8 µM), 0.221; with VE-821 + Olaparib (first compound 2.53 µM) it was 0.304; with VE-821 + Olaparib (first compound 8 µM), 0.182; with Vismodegib + Foretinib (first compound 0.08 µM), 0.957. In addition, the relative viability with Vismodegib + Foretinib (first compound 0.253 µM) amounted to 0.929; with Vismodegib + Foretinib (first compound 0.8 µM), 0.891; with Vismodegib + Foretinib (first compound 2.53 µM), 0.973; in the test with Vismodegib + Foretinib (first compound 8 µM), 1.06; in the test with Vismodegib + Palbociclib (first compound 0.08 µM) it was 0.337; with Vismodegib + Palbociclib (first compound 0.253 µM), 0.33. The relative viability worked out at 0.344 with Vismodegib + Palbociclib (first compound 0.8 µM); 0.289 with Vismodegib + Palbociclib (first compound 2.53 µM); 0.312 in the test with Vismodegib + Palbociclib (first compound 8 µM); 0.493 with Ruxolitinib + Decitabine (first compound 0.08 µM); 0.429 in the test with Ruxolitinib + Decitabine (first compound 0.253 µM); 0.521 in the test with Ruxolitinib + Decitabine (first compound 0.8 µM). For the same cell line, the relative viability with Ruxolitinib + Decitabine (first compound 2.53 µM) is 0.367; in the test with Ruxolitinib + Decitabine (first compound 8 µM) it was 0.322.
Calu-6: the relative viability amounted to 0.626 with VE-821 + Olaparib (first compound 0.08 µM); 0.597 in the test with VE-821 + Olaparib (first compound 0.253 µM); 0.566 with VE-821 + Olaparib (first compound 0.8 µM); 0.386 in the test with VE-821 + Olaparib (first compound 2.53 µM); 0.226 with VE-821 + Olaparib (first compound 8 µM); 0.761 with Vismodegib + Foretinib (first compound 0.08 µM). Besides, the relative viability is 0.837 in the test with Vismodegib + Foretinib (first compound 0.253 µM), 0.863 in the test with Vismodegib + Foretinib (first compound 0.8 µM), 0.852 in the test with Vismodegib + Foretinib (first compound 2.53 µM) and 0.9 in the test with Vismodegib + Foretinib (first compound 8 µM).
